These results are taken from US20260250290A1 (BRISTOL-MYERS SQUIBB COMPANY, priority 2023, published 2026).

Structures can show the parent of a compound that is named as a salt.

The target of this assay is T1, full length SGK1 (Homo sapiens, UniProt O00141).
T1 construct: 125 μM full length SGK1 (Life Technologies Part #PR7358A); purchased Life Technologies PR7358A
T1 sequence (O00141 1-431): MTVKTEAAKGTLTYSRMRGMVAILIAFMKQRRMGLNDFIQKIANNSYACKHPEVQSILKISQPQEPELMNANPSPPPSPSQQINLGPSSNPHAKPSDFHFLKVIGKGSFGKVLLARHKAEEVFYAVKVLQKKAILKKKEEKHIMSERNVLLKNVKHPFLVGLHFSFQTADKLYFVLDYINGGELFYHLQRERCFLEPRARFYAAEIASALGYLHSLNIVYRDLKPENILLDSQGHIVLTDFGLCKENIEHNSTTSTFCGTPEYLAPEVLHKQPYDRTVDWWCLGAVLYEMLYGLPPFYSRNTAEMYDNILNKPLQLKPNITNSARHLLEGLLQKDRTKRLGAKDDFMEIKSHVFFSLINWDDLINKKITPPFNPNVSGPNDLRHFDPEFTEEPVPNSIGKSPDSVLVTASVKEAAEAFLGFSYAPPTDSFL
In words: SGK1 inhibition Assay A (Caliper LabChip electrophoretic separation of fluorescent peptide substrate and phosphorylated product). Type of assay: biochemical. The following applies: Assay A; 20 μM ATP, 40 min incubation; read-out: SGK1 IC50.
As to `CCN(CC)CCOc1cc(C(F)F)sc1C(=O)N[C@@H]1CCCN(c2cc(C3=CCN(C(=O)OC)C3)n3ncnc(N)c23)C1` [Example 408, methyl (R)-3-(4-amino-5-(3-(3-(2-(diethylamino)ethoxy)-5-(difluoromethyl)thiophene-2-carboxamido)piperidin-1-yl)pyrrolo[2,1-f][1,2,4]triazin-7-yl)-2,5-dihydro-1H-pyrrole-1-carboxylate], the IC50 is 22 nM.

Consider `CC(=O)N1CC=C(c2cc(N3CCC[C@@H](NC(=O)c4sc(Cl)cc4OC[C@H](C)N)C3)c3c(N)ncnn23)C1` [Example 330, N—((R)-1-(7-(1-acetyl-2,5-dihydro-1H-pyrrol-3-yl)-4-aminopyrrolo[2,1-f][1,2,4]triazin-5-yl)piperidin-3-yl)-3-((S)-2-aminopropoxy)-5-chlorothiophene-2-carboxamide], for which the IC50 was found to be 3 nM.

With `CS(=O)(=O)c1ccc(-c2cc(N3CCC[C@@H](NC(=O)c4cn5ccncc5n4)C3)c3c(N)ncnn23)cc1` [Example 42, (R)-N-(1-(4-amino-7-(4-(methylsulfonyl)phenyl)pyrrolo 2,1-f][1,2,4]triazin-5-yl)piperidin-3-yl)imidazo[1,2-alpyrazine-2-carboxamide, TFA], the IC50 worked out at 187 nM.

In the case of `Cn1cc(-c2cc(N3CCC[C@@H](NC(=O)c4ccc(Cl)s4)C3)c3c(N)ncnn23)c(C2CC2)n1` [Example 203, (R)—N-(1-(4-amino-7-(3-cyclopropyl-1-methyl-1H-pyrazol-4-yl)pyrrolo[2,1-f][1,2,4]triazin-5-yl)piperidin-3-yl)-5-chlorothiophene-2-carboxamide, TFA], the IC50 is 19 nM.

On to `COC(=O)c1ccc(-c2cc(N3CCC[C@@H](NC(=O)c4ccc(Cl)s4)C3)c3c(N)ncnn23)n1C` [Example 238, methyl 5-{4-amino-5-[(3R)-3-(5-chlorothiophene-2-amido)piperidin-1-yl]pyrrolo[2,1-f] [1,2,4]triazin-7-yl}-1-methyl-1H-pyrrole-2-carboxylate], for which the IC50 is 91 nM.

For `N#Cc1ccc(-c2cc(N3CCC[C@@H](NC(=O)c4nc5ccccc5o4)C3)c3c(N)ncnn23)cn1` [Example 650, (R)-N-(1-(4-amino-7-(6-cyanopyridin-3-yl)pyrrolo[2,1-f][1,2,4]triazin-5-yl)piperidin-3-yl)benzo[d]oxazole-2-carboxamide], the IC50 was 54 nM.

Regarding `Nc1ncnn2c(-c3ccnc(C(F)F)c3)cc(N3CCC[C@@H](NC(=O)c4ccc(Cl)s4)C3)c12` [Example 483, (R)-N-(1-(4-amino-7-(2-(difluoromethyl)pyridin-4-yl)pyrrolo[2,1-f][1,2,4]triazin-5-yl)piperidin-3-yl)-5-chlorothiophene-2-carboxamide], the IC50 worked out at 4 nM.

`CC(=O)N1CC=C(c2cc(N3CCC[C@@H](NC(=O)c4sc(C(F)F)cc4OCC4CCNCC4)C3)c3c(N)ncnn23)C1` [Example 350, (R)—N-(1-(7-(1-acetyl-2,5-dihydro-1H-pyrrol-3-yl)-4-aminopyrrolo[2,1-f][1,2,4]triazin-5-yl)piperidin-3-yl)-5-(difluoromethyl)-3-(piperidin-4-ylmethoxy)thiophene-2-carboxamide]: the IC50 was 13 nM.

For `CC(C)Cn1cc(-c2cc(N3CCC[C@@H](NC(=O)c4cc5ccccc5[nH]4)C3)c3c(N)ncnn23)ccc1=O` [Example 507, (R)-N-(1-(4-amino-7-(1-isobutyl-6-ox0-1,6-dihydropyridin-3-yl)pyrrolo[2,1-f][1,2,4]triazin-5-yl)piperidin-3-yl)-1H-indole-2-carboxamide], the IC50 was 82 nM.

In the case of `N#Cc1cc(-c2cc(N3CCC[C@@H](NC(=O)c4ccc(C(F)F)s4)C3)c3c(N)ncnn23)ccn1` [Example 505, (R)-N-(1-(4-amino-7-(2-cyanopyridin-4-yl)pyrrolo[2,1-f][1,2,4]triazin-5-yl)piperidin-3-yl)-5-(difluoromethyl)thiophene-2-carboxamide], the IC50 was determined as 6 nM.

Regarding `CN(C)CCOc1cc(Cl)sc1C(=O)N[C@@H]1CCCN(c2cc(-c3ccc4nnnn4c3)n3ncnc(N)c23)C1` [Example 192, (R)-N-(1-(4-amino-7-(tetrazolo[1,5-a]pyridin-6-yl)pyrrolo[2,1-f][1,2,4]triazin-5-yl)piperidin-3-yl)-5-chloro-3-(2-(dimethylamino)ethoxy) thiophene-2-carboxamide], the IC50 was found to be 10 nM.

For `CC(=O)N1CC=C(c2cc(N3CCC[C@@H](NC(=O)c4ccon4)C3)c3c(N)ncnn23)C1` [Example 879, (R)—N-(1-(7-(1-acetyl-2,5-dihydro-1H-pyrrol-3-yl)-4-aminopyrrolo[2,1-f][1,2,4]triazin-5-yl)piperidin-3-yl)isoxazole-3-carboxamide], the IC50 is 149 nM.

With `CN1CCN(c2cccc(C(=O)N[C@@H]3CCCN(c4cc(-c5ccc(-n6cncn6)nc5)n5ncnc(N)c45)C3)n2)CC1` [Example 800, (R)-N-(1-(7-(6-(1H-1,2,4-triazol-1-yl)pyridin-3-yl)-4-aminopyrrolo[2,1-f][1,2,4]triazin-5-yl)piperidin-3-yl)-6-(4-methylpiperazin-1-yl)picolinamide], the IC50 was 17 nM.

For `CS(=O)(=O)c1ccc(-c2cc(N3CCCC(NC(=O)c4cccnn4)C3)c3c(N)ncnn23)cc1` (centres unmarked) [Example 3, N-(1-(4-amino-7-(4-(methylsulfonyl)phenyl)pyrrolo[2,1-f][1,2,4]triazin-5-yl)piperidin-3-yl)pyridazine-3-carboxamide, TFA], the IC50 was 239 nM.

Take `CC(=O)N1CC=C(c2cc(N3CCC[C@@H](NC(=O)c4sc(Cl)cc4OC4CN(CCO)C4)C3)c3c(N)ncnn23)C1` [Example 578, (R)-N-(1-(7-(1-acetyl-2,5-dihydro-1H-pyrrol-3-yl)-4-aminopyrrolo[2,1-f][1,2,4]triazin-5-yl)piperidin-3-yl)-5-chloro-3-((1-(2-hydroxyethyl)azetidin-3-yl)oxy)thiophene-2-carboxamide]: the IC50 turned out to be 17 nM.

As for `CC(=O)N1CC=C(c2cc(N3CCC[C@@H](NC(=O)C4CC5(C4)CC(F)(F)C5)C3)c3c(N)ncnn23)C1` [Example 705, (R)-N-(1-(7-(1-acetyl-2,5-dihydro-1H-pyrrol-3-yl)-4-aminopyrrolo[2,1-f][1,2,4]triazin-5-yl)piperidin-3-yl)-6,6-difluorospiro[3.3]heptane-2-carboxamide], the IC50 worked out at 760 nM.

For `CN(C)CCOc1cc(Cl)sc1C(=O)N[C@@H]1CCCN(c2cc(C3=CCN(C(=O)C4CC(F)(F)C4)CC3)n3ncnc(N)c23)C1` [Example 184, (R)-N-(1-(4-amino-7-(1-(3,3-difluorocyclobutane-1-carbonyl)-1,2,3,6-tetrahydropyridin-4-yl)pyrrolo[2,1-f][1,2,4]triazin-5-yl)piperidin-3-yl)-5-chloro-3-(2-(dimethylamino)ethoxy) thiophene-2-carboxamide, 2 TFA], the IC50 is 36 nM.

Turning to `CC(=O)N1CC=C(c2cc(N3CCC[C@@H](NC(=O)c4sc(Cl)cc4O[C@@H]4C[C@H]5CC[C@@H](C4)N5C)C3)c3c(N)ncnn23)C1` [Example 612, N—((R)-1-(7-(1-acetyl-2,5-dihydro-1H-pyrrol-3-yl)-4-aminopyrrolo[2,1-f][1,2,4]triazin-5-yl)piperidin-3-yl)-5-chloro-3-((8-methyl-8-azabicyclo[3.2.1]octan-3-yl)oxy)thiophene-2-carboxamide], the IC50 was 0.6 nM.

Regarding `Cc1nc(C)c(C(=O)N[C@@H]2CCCN(c3cc(-c4ccc(=O)n(CC(C)C)c4)n4ncnc(N)c34)C2)s1` [Example 514, (R)-N-(1-(4-amino-7-(1-isobutyl-6-oxo-1,6-dihydropyridin-3-yl)pyrrolo[2,1-f][1,2,4]triazin-5-yl)piperidin-3-yl)-2,4-dimethylthiazole-5-carboxamide], the IC50 is 131 nM.

As for `COC(=O)N1CC=C(c2cc(N3CCC[C@@H](NC(=O)c4sc(C(F)F)cc4OCCN4CCOCC4)C3)c3c(N)ncnn23)C1` [Example 336, methyl (R)-3-(4-amino-5-(3-(5-(difluoromethyl)-3-(2-morpholinoethoxy)thiophene-2-carboxamido)piperidin-1-yl)pyrrolo[2,1-f][1,2,4]triazin-7-yl)-2,5-dihydro-1H-pyrrole-1-carboxylate], the IC50 was 28 nM.

As for `CN(C)CCOc1cc(Cl)sc1C(=O)N[C@@H]1CCCN(c2cc(-c3ccc4ncnn4c3)n3ncnc(N)c23)C1` [Example 193, (R)-N-(1-(7-([1,2,4]triazolo{1,5-a]pyridin-6-yl)-4-aminopyrrolo[2,1-f][1,2,4]triazin-5-yl)piperidin-3-yl)-5-chloro-3-(2-(dimethylamino)ethoxy) thiophene-2-carboxamide], the IC50 is 25 nM.

For the compound `CC(C)n1cc(C(=O)N[C@@H]2CCCN(c3cc(-c4ccc(S(C)(=O)=O)cc4)n4ncnc(N)c34)C2)cn1` [Example 77, (R)-N-(1-(4-amino-7-(4-(methylsulfonyl)phenyl)pyrrolo[2,1-f][1,2,4]triazin-5-yl)piperidin-3-yl)-1-isopropyl-1H-pyrazole-4-carboxamide, TFA], the IC50 came to 31 nM.

As to `CN(C)C(=O)COc1cc(Cl)sc1C(=O)N[C@@H]1CCCN(c2cc(-c3ccnc(C(F)F)c3)n3ncnc(N)c23)C1` [Example 339, (R)—N-(1-(4-amino-7-(2-(difluoromethyl)pyridin-4-yl)pyrrolo[2,1-f][1,2,4]triazin-5-yl)piperidin-3-yl)-5-chloro-3-(2-(dimethylamino)-2-oxoethoxy)thiophene-2-carboxamide], the IC50 is 9 nM.
